Measured values as given in ChEMBL document CHEMBL3860063, “New potently bioactive alkaloids from Crinum erubescens” (Bioorg Med Chem, 2016).
pIC50: −log10 of the molar value.

How the values were obtained:
[1] = Antiproliferative activity against human A2780 cells measured after 2 days by AlamarBlue assay; assay type: functional, cell-based; settings: A2780, 48 h
[2] = system: Plasmodium falciparum; assay: Antiplasmodial activity against chloroquine/mefloquine-resistant Plasmodium falciparum Dd2 measured after 72 hrs by SYBR Green1-based fluorescence assay; assay type: functional; settings: Dd2, 72 h

SMILES: CO[C@@H]1[C@@H](OC)[C@H](O[C@@H]2CC(=O)[C@@H]3CCN(Cc4cc5c(cc43)OCO5)C(=O)[C@H]2O)O[C@H](CO)[C@H]1OC
- pIC50 [1]: 7.79
- pIC50 [2]: 6.74

SMILES: CO[C@@H]1[C@@H](OC)[C@H](O[C@@H]2CC(=O)[C@@H]3CCN(Cc4cc5c(cc43)OCO5)C(=O)[C@H]2O)O[C@H](C)[C@H]1OC
- pIC50 [1]: 7.55
- pIC50 [2]: 6.59

SMILES: CO[C@H]1[C@@H]2OCOCO[C@H]2[C@H](O[C@@H]2CC(=O)[C@@H]3CCN(Cc4cc5c(cc43)OCO5)C(=O)[C@H]2O)O[C@@H]1C
- pIC50 [1]: 7.60
- pIC50 [2]: 7.59

SMILES: CO[C@H]1[C@@H]2OCOCO[C@H]2[C@H](O[C@@H]2CC(=O)[C@@H]3CCN(Cc4cc5c(cc43)OCO5)C(=O)[C@H]2O)O[C@@H]1CO
- pIC50 [1]: 7.95
- pIC50 [2]: 7.52

SMILES: C[C@@H]1CC[C@H]2[C@@H](C)C(=O)O[C@@H]3O[C@@]4(C)CC[C@@H]1[C@]32OO4 [ARTEMISININ]
- pIC50 [2]: 8.22
